Laboratory results: patent US10004732B2 (Novartis AG, priority 2014, dated 2018)
pIC50: −log10 of the molar value.

How the values were obtained:
[1] = target: T1, PI 3-kinase alpha (Homo sapiens, UniProt P42336); experiment: Kinase Glo Luminescent Kinase Assay (Kglo), assay A; format: biochemical; conditions: read-out: Assay A PI3Kα IC50
Protocol: (§1) Kinase Glo Luminescent Kinase Assay (Kglo) for Pb 3-Kinase Alpha (A), Pb 3-Kinase Beta (B), Vps34 (C), Pb 4-Kinase Beta (D)
(§2) The Kinase Glo Luminescent Kinase Assay (Promega, Madison/Wis., USA) is a homogeneous HTS method of measuring kinase activity by quantifying the amount of ATP remaining in solution following a kinase reaction.
(§3) L-α-phosphatidylinositol (PI), provided as 10 mg/ml solution in methanol, was transferred into a glass tube and dried under a nitrogen beam. It was then resuspended in 3% OctylGlucoside (1-0-n-octyl-beta-D-glucopyranoside) by vortexing and stored at 4° C. 5 μL of a mix of PI/OctylGlucoside with the PI 3-kinase alpha and PI 3-kinase beta subtypes, or Vps34 or PI 4-kinase beta were added. Kinase reactions were started by the addition of 5 μl of an ATP-mix containing in a final volume 10 μL 10 mM TRIS-HCl pH 7.5, 3 mM MgCl2, 50 mM NaCl, 0.05% CHAPS, 1 mM DTT and 1 μM ATP at room temperature.
(§4) All fits were performed with the program XLfit4 (ID Business Solutions, Guildford, UK).

[2] = target: T2, PI 3-kinase beta (Homo sapiens, UniProt P42338); experiment: Kinase Glo Luminescent Kinase Assay (Kglo), assay B; format: biochemical; conditions: read-out: Assay B PI3Kβ IC50
[3] = target: Vps34 (Homo sapiens, UniProt Q8NEB9); experiment: Kinase Glo Luminescent Kinase Assay (Kglo), assay C; format: biochemical; conditions: read-out: Assay C VPS34 IC50
[4] = target: PI 4-kinase beta (Homo sapiens, UniProt Q9UBF8); experiment: Kinase Glo Luminescent Kinase Assay (Kglo), assay D; format: biochemical; conditions: read-out: Assay D PI4Kβ IC50
Protocol: as §1, §2, §3, §4

[5] = target: T3, PI 3-kinase gamma (Homo sapiens, UniProt P48736); experiment: TR-FRET Adapta assay, assay E; format: biochemical; conditions: read-out: Assay E PI3Kγ IC50
[6] = target: mTOR (Homo sapiens, UniProt P42345); experiment: Lanthascreen kinase binding assay, assay G; conditions: read-out: Assay G mTOR IC50
Protocol: Lanthascreen™ Kinase Binding Assay for mTOR (G)
Binding of an inhibitor to the kinase competes for binding with the tracer, resulting in a loss of FRET.
50 nL of compound dilutions were dispensed onto white 384-well small volume polystyrene plate.

[7] = target: T1, PI 3-kinase alpha; experiment: Cellular assay H1, p-Akt (S473) in Rat-1 cells, Surefire format; format: cell-based; conditions: non-asterisked data: version H1 (Surefire format), Rat-1 cells; read-out: Assay H PI3Kα IC50
[8] = target: T2, PI 3-kinase beta; experiment: Cellular assay I1, p-Akt (S473) in Rat-1 cells, Surefire format; format: cell-based; conditions: non-asterisked data: version I1 (Surefire format), Rat-1 cells; read-out: Assay I PI3Kβ IC50
Description: Cellular Assays for PI 3-Kinase Alpha (H1), Beta (I1) and Delta (J1): Surefire Format
AlphaScreen (Amplified Luminescent Proximity Homogeneous Assay, ALPHA, Perkin Elmer) is a non-radioactive bead-based proximity assay technology to study biomolecular interactions in a homogenous microtiter plate format. The brand name SureFire denotes AlphaScreen assays that are adapted to quantify the phosphorylation of endogenous cellular proteins in cell lysates, by using matched antibody pairs, which consist of an anti-phospho-kinase and an anti-kinase antibody. The assay allows characterization of kinase signaling in cells as well as measurement of kinase inhibitor effects.
Using Rat-1 cells stably expressing myr-HA-tagged versions of the human PI3Kdelta, PI3Kalpha, or PI3Kbeta p110 catalytic subunit isoforms, the assay was developed as a two-plate protocol in a 384-well format.
For compound testing, the cells were seeded at a density of 4000 (Rat-1_PI3Kdelta), 7500 (Rat-1_PI3Kalpha), or 6200 (Rat-1_PI3Kbeta) cells in 20 μl complete growth medium into cell culture treated 384-well plates and were grown at 37° C./5% CO2/90% humidity for 24 h. Shortly before compound transfer, the complete medium was removed, 30 μl assay buffer (DMEM high glucose, 1×MEM NEAA, 10 mM HEPES, 2 mM L-glutamine, 0.1% (w/v) BSA) was added and 10 μl of the compound predilutions were transferred to the cells.

[9] = target: T4, PI 3-kinase delta (Homo sapiens, UniProt O00329); experiment: Cellular assay J1, p-Akt (S473) in Rat-1 cells, Surefire format; format: cell-based; conditions: non-asterisked data: version J1 (Surefire format), Rat-1 cells; read-out: Assay J PI3Kδ IC50
Target sequence in this assay (O00329 whole entry): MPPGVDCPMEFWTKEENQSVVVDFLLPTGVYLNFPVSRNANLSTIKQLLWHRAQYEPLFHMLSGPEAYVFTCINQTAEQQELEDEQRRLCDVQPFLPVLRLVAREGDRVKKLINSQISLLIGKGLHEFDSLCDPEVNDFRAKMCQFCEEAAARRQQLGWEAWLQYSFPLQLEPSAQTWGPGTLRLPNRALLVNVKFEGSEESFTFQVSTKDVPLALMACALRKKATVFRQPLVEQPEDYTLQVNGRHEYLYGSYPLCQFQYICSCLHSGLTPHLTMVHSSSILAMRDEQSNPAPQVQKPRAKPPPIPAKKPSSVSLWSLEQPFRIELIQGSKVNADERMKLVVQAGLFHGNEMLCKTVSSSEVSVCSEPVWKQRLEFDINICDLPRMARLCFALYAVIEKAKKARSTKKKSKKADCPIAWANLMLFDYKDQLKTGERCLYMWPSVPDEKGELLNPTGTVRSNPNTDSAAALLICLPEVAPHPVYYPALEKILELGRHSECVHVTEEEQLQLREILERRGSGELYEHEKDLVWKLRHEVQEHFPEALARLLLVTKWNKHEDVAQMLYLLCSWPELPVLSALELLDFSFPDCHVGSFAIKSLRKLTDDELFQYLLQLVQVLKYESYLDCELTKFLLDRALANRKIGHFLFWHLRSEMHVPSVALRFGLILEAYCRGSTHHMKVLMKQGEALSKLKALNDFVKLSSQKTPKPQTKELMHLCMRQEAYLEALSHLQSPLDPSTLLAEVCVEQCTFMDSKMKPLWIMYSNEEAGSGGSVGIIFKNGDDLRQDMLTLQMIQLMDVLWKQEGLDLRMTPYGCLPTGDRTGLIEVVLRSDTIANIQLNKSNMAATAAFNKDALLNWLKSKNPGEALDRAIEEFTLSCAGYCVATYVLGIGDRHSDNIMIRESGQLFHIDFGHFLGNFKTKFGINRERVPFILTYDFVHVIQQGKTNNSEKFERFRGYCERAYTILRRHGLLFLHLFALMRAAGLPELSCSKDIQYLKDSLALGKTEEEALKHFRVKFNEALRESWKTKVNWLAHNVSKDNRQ
Target sequence in this assay (Q63787 whole entry partner): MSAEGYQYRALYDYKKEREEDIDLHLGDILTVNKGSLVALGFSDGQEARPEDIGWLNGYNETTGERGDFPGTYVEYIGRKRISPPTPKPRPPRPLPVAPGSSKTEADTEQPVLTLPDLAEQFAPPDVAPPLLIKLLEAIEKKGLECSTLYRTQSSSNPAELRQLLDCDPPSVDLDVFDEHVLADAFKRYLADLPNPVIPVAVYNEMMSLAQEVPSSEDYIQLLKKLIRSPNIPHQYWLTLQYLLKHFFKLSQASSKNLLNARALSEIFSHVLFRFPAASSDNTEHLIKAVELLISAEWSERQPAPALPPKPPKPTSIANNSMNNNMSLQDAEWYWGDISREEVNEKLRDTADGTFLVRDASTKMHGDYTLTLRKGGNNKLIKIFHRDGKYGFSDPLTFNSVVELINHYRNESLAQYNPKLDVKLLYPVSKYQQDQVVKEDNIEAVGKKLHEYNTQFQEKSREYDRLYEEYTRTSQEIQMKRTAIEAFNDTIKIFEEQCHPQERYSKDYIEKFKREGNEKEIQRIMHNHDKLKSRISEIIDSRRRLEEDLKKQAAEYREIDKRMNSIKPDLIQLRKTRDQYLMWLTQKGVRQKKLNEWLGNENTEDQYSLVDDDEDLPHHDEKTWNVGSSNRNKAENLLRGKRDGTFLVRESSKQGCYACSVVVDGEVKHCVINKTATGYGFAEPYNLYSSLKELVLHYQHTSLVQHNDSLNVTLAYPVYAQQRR

[10] = target: T3, PI 3-kinase gamma; experiment: Cellular U937 AKT assay K1 (MSD); format: cell-based; conditions: U937 cells, K1 format; read-out: Assay K1 PI3Kγ IC50
[11] = tested on: IL-8-induced neutrophil shape change in human whole blood; experiment: Whole blood neutrophil shape change assay (L); format: cell-based; conditions: Homo sapiens, Neutrophil, IL-8, human whole blood, read-out: Assay L WBSC IC50
Protocol: Whole Blood Neutrophil Shape Change Assay (L)
IL-8 was made up to 2 μM stocks in 0.1% bovine serum albumin/PBS and stored at −80° C. On the day IL-8 was diluted in PBS (phosphate buffered saline) 10 minutes before use. IL-8 was used at final concentration of 2 nM and a concentration range from 0.003 to 200 nM for the donor dose response curve.
Assay fixative solution was prepared fresh each day from 10× concentrated CellFIX™ solution diluted 1:10 in sterile distilled water and then 1:4 with PBS. Assay fixative solution was kept on ice prior to use.
A 10× lysis buffer was prepared in advance by dissolving 20.75 g NH4Cl and 2.5 g KHCO3 in 250 ml sterile H2O. This 10× lysis buffer was filtered under sterile conditions and stored for up to two weeks at 4° C. On the day a 1× lysis solution was prepared with sterile distilled H2O and kept on ice prior to use.
The test compounds were prepared as 10 mM stock solutions in 100% DMSO and were stored at 4° C. Once in use for an assay 10 mM stock compounds were thawed and stored at RT protected from light. Compound dilutions were prepared fresh on the day. The first series of dilutions in 100% DMSO were done first thing in the morning. Only once blood had been collected and arrived in laboratory was the next set of dilutions into PBS carried out (1:10 PBS, 10% DMSO). This limited the exposure of diluted compound to plastic and made sure the exposure timing was consistent between assays.
Compound dilutions in 100% DMSO were prepared as described previously. Human whole blood was collected in K2 EDTA Vacutainers. Once blood was in the laboratory, compound dilutions into PBS were carried out as described previously and depicted in Table 1.
The outer wells of the deep well assay plate were filled with 1200 μl of sterile distilled H2O in an effort to limit edge effects (rows A1-H1, A1-A12, A12-H12).
An IL-8 dose response was determined for each blood donor examined, to monitor the donor response to IL-8. At this step in assay preparation for the IL-8 dose response samples 10 μl of PBS was added to designated wells. In addition the assay window without DMSO was also assessed each day. For such samples at this step in assay preparation 10 μl of PBS was added in the place of 10% DMSO.
Lids were placed on the 96 well plates and samples were incubated for 15 minutes at 37° C. in a water-bath.
Following the compound pre-incubation 10× final IL-8 was added to appropriate wells (10 μl of 20 nM working stock IL-8, final IL-8 concentration in blood=2 nM) and 10 μl of PBS was added to the un-stimulated controls. 10× final dose response range IL-8 was also added to designated wells (final concentration range on assay plate was 200 nM to 0.0005 nM, 1:5 serial dilution in PBS). The IL-8 and PBS were added to appropriate wells across all assay plates in the same sequence as the blood to compound addition. […] Samples were incubated for 5 minutes at 37° C. in a water-bath. Following the incubation sample plates were transferred to ice where 250 μl of chilled Assay Fixative Buffer was added promptly to all wells.
Samples were incubated on ice for 7 minutes (no mixing). […] Once added samples were mixed once and incubated on ice for 30 minutes to achieve uniform red blood cells lysis. After lysis, 200 μl of sample was transferred to a 96 well microplate on ice. […] Granulocytes were identified based on differential side scatter (SSC) and forward scatter (FSC) characteristics.

[12] = target: T4, PI 3-kinase delta; experiment: TR-FRET Adapta assay, assay F; conditions: read-out: Assay F PI3Kδ IC50
Target sequence in this assay (O00329 whole entry): as the sequence (O00329 whole entry) above
Target sequence in this assay (P27986 461-568 partner): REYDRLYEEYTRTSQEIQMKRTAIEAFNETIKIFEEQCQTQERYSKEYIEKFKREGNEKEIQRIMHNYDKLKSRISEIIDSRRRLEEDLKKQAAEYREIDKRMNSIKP

[13] = Microsomal clearance assay (M); conditions: intrinsic clearance in rat liver microsomes
Protocol: The experiments were performed in 96-well glass plates at 37° C. on an automated Tecan EVO platform. Test compounds at a concentration of 10 mM in pure DMSO were diluted 1:1000 in water to 10 μM. […] Reactions were initiated by the addition of 150 μL of a cofactor solution containing 2 mM NADPH.

Sequence of Vps34 (Q8NEB9 whole entry, species assumed): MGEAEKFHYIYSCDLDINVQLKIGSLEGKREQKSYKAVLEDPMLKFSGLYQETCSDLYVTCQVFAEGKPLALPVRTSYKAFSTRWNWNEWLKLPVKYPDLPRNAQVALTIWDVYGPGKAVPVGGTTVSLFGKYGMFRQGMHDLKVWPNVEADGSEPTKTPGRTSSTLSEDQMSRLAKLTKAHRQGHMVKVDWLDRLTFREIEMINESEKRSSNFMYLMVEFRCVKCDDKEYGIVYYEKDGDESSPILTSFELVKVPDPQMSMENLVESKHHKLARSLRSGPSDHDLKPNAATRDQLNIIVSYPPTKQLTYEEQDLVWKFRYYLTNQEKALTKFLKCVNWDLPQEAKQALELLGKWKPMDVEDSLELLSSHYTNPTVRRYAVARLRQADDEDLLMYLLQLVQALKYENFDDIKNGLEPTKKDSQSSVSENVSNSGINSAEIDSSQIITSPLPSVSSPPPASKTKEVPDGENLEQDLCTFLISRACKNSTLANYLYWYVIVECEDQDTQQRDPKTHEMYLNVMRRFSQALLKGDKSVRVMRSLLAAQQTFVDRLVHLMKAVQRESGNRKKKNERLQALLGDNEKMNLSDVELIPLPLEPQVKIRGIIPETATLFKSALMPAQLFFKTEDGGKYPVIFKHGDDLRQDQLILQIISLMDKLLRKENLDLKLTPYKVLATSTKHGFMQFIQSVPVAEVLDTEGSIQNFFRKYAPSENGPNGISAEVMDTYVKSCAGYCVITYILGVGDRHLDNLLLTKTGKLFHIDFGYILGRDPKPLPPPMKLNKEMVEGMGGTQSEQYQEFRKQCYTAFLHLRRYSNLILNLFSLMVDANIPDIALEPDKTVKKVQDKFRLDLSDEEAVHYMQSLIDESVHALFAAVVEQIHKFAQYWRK
T3 sequence (P48736 whole entry): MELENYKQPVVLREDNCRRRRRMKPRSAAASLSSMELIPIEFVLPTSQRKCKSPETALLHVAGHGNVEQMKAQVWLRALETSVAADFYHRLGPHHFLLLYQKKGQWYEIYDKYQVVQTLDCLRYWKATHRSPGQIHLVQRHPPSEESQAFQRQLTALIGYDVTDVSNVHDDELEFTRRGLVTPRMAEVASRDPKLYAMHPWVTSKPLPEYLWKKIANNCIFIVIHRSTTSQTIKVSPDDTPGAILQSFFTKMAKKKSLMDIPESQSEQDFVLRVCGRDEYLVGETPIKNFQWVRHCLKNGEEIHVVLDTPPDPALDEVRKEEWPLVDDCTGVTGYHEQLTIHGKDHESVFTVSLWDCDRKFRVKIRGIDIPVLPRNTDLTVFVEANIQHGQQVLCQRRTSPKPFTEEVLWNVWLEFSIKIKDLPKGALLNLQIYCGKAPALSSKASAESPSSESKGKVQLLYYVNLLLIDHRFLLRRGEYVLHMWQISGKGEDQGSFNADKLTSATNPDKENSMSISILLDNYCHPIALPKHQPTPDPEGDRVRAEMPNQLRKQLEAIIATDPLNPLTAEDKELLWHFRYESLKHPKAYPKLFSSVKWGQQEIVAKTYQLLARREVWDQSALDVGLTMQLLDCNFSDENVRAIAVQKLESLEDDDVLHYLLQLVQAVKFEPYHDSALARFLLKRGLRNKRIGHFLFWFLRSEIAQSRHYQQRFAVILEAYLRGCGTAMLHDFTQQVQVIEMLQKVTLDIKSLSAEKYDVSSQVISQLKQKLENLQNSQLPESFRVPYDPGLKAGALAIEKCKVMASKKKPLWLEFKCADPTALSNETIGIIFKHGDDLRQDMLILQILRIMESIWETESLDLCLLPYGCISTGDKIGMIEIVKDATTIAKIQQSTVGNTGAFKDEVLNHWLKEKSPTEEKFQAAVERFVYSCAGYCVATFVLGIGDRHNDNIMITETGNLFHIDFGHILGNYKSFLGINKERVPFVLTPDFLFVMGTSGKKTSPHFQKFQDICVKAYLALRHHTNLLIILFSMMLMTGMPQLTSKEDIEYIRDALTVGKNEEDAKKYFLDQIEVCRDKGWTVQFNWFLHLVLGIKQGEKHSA
Sequence of PI 4-kinase beta (Q9UBF8 whole entry): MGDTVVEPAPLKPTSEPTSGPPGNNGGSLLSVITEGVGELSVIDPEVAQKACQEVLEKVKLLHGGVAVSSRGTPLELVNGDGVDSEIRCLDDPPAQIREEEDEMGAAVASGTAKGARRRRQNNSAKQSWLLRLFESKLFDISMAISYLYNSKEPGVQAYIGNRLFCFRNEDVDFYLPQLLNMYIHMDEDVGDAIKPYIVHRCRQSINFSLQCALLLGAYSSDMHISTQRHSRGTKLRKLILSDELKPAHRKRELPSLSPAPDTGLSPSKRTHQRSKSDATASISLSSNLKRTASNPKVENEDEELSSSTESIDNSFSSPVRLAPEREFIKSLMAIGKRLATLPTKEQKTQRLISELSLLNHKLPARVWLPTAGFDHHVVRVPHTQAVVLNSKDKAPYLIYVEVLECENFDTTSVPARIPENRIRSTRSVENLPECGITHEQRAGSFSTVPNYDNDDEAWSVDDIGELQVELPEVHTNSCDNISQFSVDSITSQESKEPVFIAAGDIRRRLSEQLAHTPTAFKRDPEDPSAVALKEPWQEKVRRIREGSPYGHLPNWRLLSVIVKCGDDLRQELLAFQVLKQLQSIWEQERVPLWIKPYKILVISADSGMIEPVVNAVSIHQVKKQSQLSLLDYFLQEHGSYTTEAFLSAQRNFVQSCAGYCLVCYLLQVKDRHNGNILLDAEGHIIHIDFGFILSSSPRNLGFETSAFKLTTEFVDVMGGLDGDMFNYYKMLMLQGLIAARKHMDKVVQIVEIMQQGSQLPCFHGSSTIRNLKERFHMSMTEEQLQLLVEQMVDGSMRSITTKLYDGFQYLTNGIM

| pIC50 [1] | pIC50 [2] | pIC50 [3] | pIC50 [4] | pIC50 [5] | pIC50 [6] | pIC50 [7] | pIC50 [8] | pIC50 [9] | pIC50 [10] | pIC50 [11] | pIC50 [12] | Assay M RLM CI(int) [13] | Compound |
| --- | --- | --- | --- | --- | --- | --- | --- | --- | --- | --- | --- | --- | --- |
| 7.05 | 6.07 | 5.74 | 5.13 | 8.52 | 5.66 | 5.88 | 5.53 | 6.04 | 7.17 | 6.60 | 6.80 | 36 µL/min/mg | Cc1ccc(S(=O)(=O)NC2CC3(CC(O)C3)C2)cc1-c1cnc(N)c(-n2cncn2)n1 (stereo not shown) [Example 67, 3-(5-Amino-6-(1H-1,2,4-triazol-1-yl)pyrazin-2-yl)-N-(6-hydroxyspiro[3.3]heptan-2-yl)-4-methylbenzenesulfonamide] |
| 6.85 | 5.99 | < 5.00 | 5.19 | 8.05 | 5.28 | 6.05 | 5.73 | 6.21 | 7.37 | 6.81 | 6.60 | 47 µL/min/mg | Cc1ccc(S(=O)(=O)NC[C@H]2CCOC2)cc1-c1cnc(N)c(-c2cn(C)nc2C)n1 [Example 16, 3-[5-Amino-6-(1,3-dimethyl-1H-pyrazol-4-yl)-pyrazin-2-yl]-4-methyl-N—[(R)-1-(tetrahydrofuran-3-yl)methyl]-benzenesulfonamide] |
| 5.46 | 5.82 | < 5.00 | < 5.00 | 7.04 | < 5.00 | 5.18 | 5.81 | 6.10 | 6.44 | 5.92 | 6.24 | 233 µL/min/mg | CCN1CCC[C@@H]1CNS(=O)(=O)c1ccc(C)c(-c2cnc(N)c(-n3cncn3)n2)c1 [Example 127.12] |
| 6.64 | 5.13 | < 5.04 | 5.36 | 7.31 | 5.22 | 5.90 | < 5.00 | 5.67 | 6.75 | 6.02 | 6.72 | 44 µL/min/mg | Cc1cc(-c2nc(-c3cc(S(=O)(=O)NCCC(C)(C)O)ccc3C)cnc2N)ccn1 [Example 119.28] |
| 6.09 |  | < 5.04 | < 5.04 | 8.52 | < 5.04 | 5.50 | < 5.00 | 5.97 | 6.83 | 6.16 | 6.41 | 25 µL/min/mg | Cc1noc(-c2nc(-c3cc(S(=O)(=O)N[C@H]4CC[C@H](O)CC4)ccc3C)cnc2N)n1 [Example 2, Trans-3-[5-Amino-6-(3-methyl-[1,2,4]oxadiazol-5-yl)-pyrazin-2-yl]-N-(4-hydroxy-cyclohexyl)-4-methyl-benzenesulfonamide] |
| 6.51 | 5.20 | < 5.04 | 5.26 | 8.52 | < 5.04 | 5.96 | 5.69 | 6.12 | 7.27 | 6.17 | 7.15 | 223 µL/min/mg | Cc1ccc(S(=O)(=O)NCCC(C)(C)O)cc1-c1cnc(N)c(-n2cnc(C3CC3)n2)n1 [Example 26, 3-[5-Amino-6-(3-cyclopropyl-[1,2,4]triazol-1-yl)-pyrazin-2-yl]-N-(3-hydroxy-3-methyl-butyl)-4-methyl-benzenesulfonamide] |
| 6.80 | 5.70 | < 5.02 | 5.36 | 7.57 | 5.42 | 5.98 | 5.60 | 5.99 | 7.40 | 6.04 | 6.92 | 37 µL/min/mg | Cc1ccc(S(=O)(=O)NOCC(C)(C)O)cc1-c1cnc(N)c(-n2cncn2)n1 [Example 31, 3-(5-Amino-6-[1,2,4]triazol-1-yl-pyrazin-2-yl)-N-(2-hydroxy-2-methyl-propoxy)-4-methyl-benzenesulfonamide] |
| 6.48 | 5.29 | < 5.04 | 5.14 | 7.18 | 5.52 | 5.07 | < 5.00 | 5.36 | 6.60 | 5.46 | 6.33 | 21 µL/min/mg | Cc1cc(-c2nc(-c3cc(S(=O)(=O)NC4CCC(C)(O)CC4)ccc3C)cnc2N)ccn1 (stereo not shown) [Example 129.19, 3-(5-amino-6-(2-methylpyridin-4-yl)pyrazin-2-yl)-N-(4-hydroxy-4-methylcyclohexyl)-4-methylbenzenesulfonamide] |
| 6.36 | 5.39 | < 5.04 | < 5.04 | 7.66 | < 5.04 | 5.84 | < 5.00 | 5.84 | 6.81 | 6.10 | 6.62 | 87 µL/min/mg | Cc1ncn(-c2nc(-c3cc(S(=O)(=O)NCCC(C)(C)O)ccc3C)cnc2N)n1 [Example 65, 3-(5-Amino-6-(3-methyl-1H-1,2,4-triazol-1-yl)pyrazin-2-yl)-N-(3-hydroxy-3-methylbutyl)-4-methylbenzenesulfonamide] |
| 6.55 | 5.22 | < 5.00 | 5.12 | 7.00 | < 5.00 | 5.55 | 5.46 | 6.64 | 7.29 | 6.06 | 6.89 | 8 µL/min/mg | Cc1ccc(S(=O)(=O)NOCC(C)(C)O)cc1-c1cnc(N)c(-c2cn(C)nc2C)n1 [Example 125, 3-(5-Amino-6-(1,3-dimethyl-1H-pyrazol-4-yl)pyrazin-2-yl)-N-(2-hydroxy-2-methylpropoxy)-4-methylbenzenesulfonamide] |
| 6.85 | 5.58 | < 5.04 | 5.45 | 8.00 | 5.23 | 5.59 | 5.16 | 5.45 | 7.24 | 6.80 | 6.89 | 78 µL/min/mg | Cc1ccc(S(=O)(=O)N[C@H]2CC[C@H](O)CC2)cc1-c1cnc(N)c(-c2ccncc2)n1 [Example 11, Trans-3-(5-Amino-6-(pyridin-4-yl)pyrazin-2-yl)-N-(4-hydroxycyclohexyl)-4-methylbenzenesulfonamide] |
| 6.82 | 5.55 | < 5.04 | 5.15 | 7.92 | 5.29 | 5.79 | 5.34 | 5.92 | 7.19 | 6.13 | 6.74 | 62 µL/min/mg | Cc1ccc(S(=O)(=O)NCCC(C)(C)O)cc1-c1cnc(N)c(-c2cnn(CC(F)(F)F)c2)n1 [Example 130, 3-(5-Amino-6-(1-(2,2,2-trifluoroethyl)-1H-pyrazol-4-yl)pyrazin-2-yl)-N-(3-hydroxy-3-methylbutyl)-4-methylbenzenesulfonamide] |
| 5.89 |  | < 5.04 | < 5.04 | 7.82 |  | 5.03 | < 5.00 | 5.13 | 6.30 | 6.10 | 6.00 | <3.4 µL/min/mg | Cc1nnc(-c2nc(-c3cc(S(=O)(=O)N[C@H]4CC[C@H](O)CC4)ccc3C)cnc2N)o1 [Example 1, Trans-3-[5-Amino-6-(5-methyl-[1,3,4]oxadiazol-2-yl)-pyrazin-2-yl]-N-(4-hydroxy-cyclohexyl)-4-methyl-benzenesulfonamide] |
| 6.92 | 5.65 | < 5.00 | 5.52 |  | 5.74 | 6.89 | < 5.00 | 6.08 | 7.44 | 6.01 | 6.28 | 40 µL/min/mg | Cc1ccc(S(=O)(=O)NOC2CCOC2)cc1-c1cnc(N)c(-n2cncn2)n1 (stereo not shown) [Example 112.5, 3-(5-Amino-6-(1H-1,2,4-triazol-1-yl)pyrazin-2-yl)-4-methyl-N-((tetrahydrofuran-3-yl)oxy)benzenesulfonamide] |
